The results in this text go back to USRE37781E1, “Substituted cyclic carbonyls and derivatives thereof useful as retroviral protease inhibitors” (DuPont Pharmaceuticals Company, priority 1991, dated 2002).

A value given as a limit tells only on which side of the number the result lay.

The first experiment relates to HIV-1 (RF) in MT-2 cells. Kind of experiment: microbe, parasite or virus in culture. In kind it is cell-based. The conditions noted are these: Table 2m. An outline of the steps: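 Read-out: gag and pol viral RNA captured by 5′-biotinylated oligonucleotides on streptavidin-coated wells, detected with alkaline phosphatase-linked reporter oligonucleotides, calibrated against BH10 in vitro transcripts. Virus stocks (RF, MN, IIIB) come from H9 cultures; MT-2 host cells kept in RPMI 1640, 5% FCS.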
For the compound `CN(C)CCNC(=O)c1cccc(CN2C(Cc3ccccc3)C(O)C(O)C(Cc3ccccc3)N(Cc3cccc(C(=O)NCCN(C)C)c3)S2(=O)=O)c1` (stereo not shown) [23AA], the IC90 entry was “++ (++=10 to 100 μg/mL)”.
Still for that read-out and setting: the value for `O=S1(=O)NC(Cc2ccccc2)C(O)C(O)C(Cc2ccccc2)N1CCCCCO` (stereo not shown) [23AE] was “++/+ (The ++/+ is used in the cases where an IC90 was determined to be >50 μg/mL)”; that for `O=S1(=O)N(CCCCCO)C(Cc2ccccc2)C(O)C(O)C(Cc2ccccc2)N1Cc1ccc2ccccc2c1` (stereo not shown) [23AF] was “+++ (+++=<10 μg/mL)”; that for `O=S1(=O)N(CCCCCO)C(Cc2ccccc2)C(O)C(O)C(Cc2ccccc2)N1Cc1ccc(CO)cc1` (stereo not shown) [23AG] was “+++ (+++=<10 μg/mL)”.
With `O=S1(=O)N(CCCCCO)C(Cc2ccccc2)C(O)C(O)C(Cc2ccccc2)N1Cc1cccc(CO)c1` (stereo not shown) [23AH], the IC90 result is “+++ (+++=<10 μg/mL)”.
For the compound `O=S1(=O)NC(Cc2ccccc2)C(O)C(O)C(Cc2ccccc2)N1` (stereo not shown) [23A], the IC90 entry was “++ (++=10 to 100 μg/mL)”.
In the case of `C=CCN1C(Cc2ccccc2)C(O)C(O)C(Cc2ccccc2)N(CC=C)S1(=O)=O` (stereo not shown) [23E], the IC90 result was “+++ (+++=<10 μg/mL)”.
As for `CCCCN1C(Cc2ccccc2)C(O)C(O)C(Cc2ccccc2)N(CCCC)S1(=O)=O` (stereo not shown) [23G], the IC90 entry was “+++ (+++=<10 μg/mL)”.
In the case of `O=S1(=O)N(Cc2ccc3ccccc3c2)C(Cc2ccccc2)C(O)C(O)C(Cc2ccccc2)N1Cc1ccc2ccccc2c1` (stereo not shown) [23H], the IC90 result is “+++ (+++=<10 μg/mL)”.
Still for that read-out and setting: the value for `O=S1(=O)N(Cc2ccccc2)C(Cc2ccccc2)C(O)C(O)C(Cc2ccccc2)N1Cc1ccccc1` (stereo not shown) [23I] was “+++ (+++=<10 μg/mL)”; that for `O=S1(=O)N(Cc2ccc(OCc3ccccc3)cc2)C(Cc2ccccc2)C(O)C(O)C(Cc2ccccc2)N1Cc1ccc(OCc2ccccc2)cc1` (stereo not shown) [23J] was “++ (++=10 to 100 μg/mL)”.
Regarding `O=S1(=O)N(Cc2ccc(O)cc2)C(Cc2ccccc2)C(O)C(O)C(Cc2ccccc2)N1Cc1ccc(O)cc1` (stereo not shown) [23K], the IC90 result was “+++ (+++=<10 μg/mL)”.
`Nc1cccc(CN2C(Cc3ccccc3)C(O)C(O)C(Cc3ccccc3)N(Cc3cccc(N)c3)S2(=O)=O)c1` (stereo not shown) [23M]: the IC90 entry is recorded as “+++ (+++=<10 μg/mL)”.
As to `O=S1(=O)N(Cc2cccc(CO)c2)C(Cc2ccccc2)C(O)C(O)C(Cc2ccccc2)N1Cc1cccc(CO)c1` (stereo not shown) [23N], the IC90 result is listed as “+++ (+++=<10 μg/mL)”.
On the same count and under the same terms, the value for `COCc1cccc(CN2C(Cc3ccccc3)C(O)C(O)C(Cc3ccccc3)N(Cc3cccc(COC)c3)S2(=O)=O)c1` (stereo not shown) [23P] was “++ (++=10 to 100 μg/mL)”; that for `O=Cc1cccc(CN2C(Cc3ccccc3)C(O)C(O)C(Cc3ccccc3)N(Cc3cccc(C=O)c3)S2(=O)=O)c1` (stereo not shown) [23Q] was “+++ (+++=<10 μg/mL)”; that for `O=S1(=O)N(CC2CCOC2)C(Cc2ccccc2)C(O)C(O)C(Cc2ccccc2)N1CC1CCOC1` (stereo not shown) [23R] was “+++ (+++=<10 μg/mL)”.
Take `O=S1(=O)N(Cc2cccc(C=NO)c2)C(Cc2ccccc2)C(O)C(O)C(Cc2ccccc2)N1Cc1cccc(C=NO)c1` (stereo not shown) [23S]: the IC90 result was “+++ (+++=<10 μg/mL)”.
On the same count and under the same terms, the value for `CC(=O)c1cccc(CN2C(Cc3ccccc3)C(O)C(O)C(Cc3ccccc3)N(Cc3cccc(C(C)=O)c3)S2(=O)=O)c1` (stereo not shown) [23T] was “+++ (+++=<10 μg/mL)”.

The same experiment, now with this note: Table 2d; HIV RNA assay.
Regarding `Cl.NCC(=O)Nc1cccc(CN2C(=O)N(Cc3ccc(CO)cc3)C(Cc3ccccc3)C(O)C(O)C2Cc2ccccc2)c1` (stereo not shown) [15XT], the IC90 result is given as “+++ (+++=<10 μg/mL)”.
On the same count and under the same terms, the value for `O=C(NCCN1CCOCC1)c1cccc(CN2C(=O)N(Cc3cccc(C(=O)NCCN4CCOCC4)c3)C(Cc3ccccc3)C(O)C(O)C2Cc2ccccc2)c1` (stereo not shown) [15XU] was “+++ (+++=<10 μg/mL)”; that for `CN(C)CCNC(=O)c1cccc(CN2C(=O)N(CC3CC3)C(Cc3ccccc3)C(O)C(O)C2Cc2ccccc2)c1` (stereo not shown) [15YA] was “+++ (+++=<10 μg/mL)”.
Still for that read-out and setting: with `O=C(NCCN1CCOCC1)c1cccc(CN2C(=O)N(CC3CC3)C(Cc3ccccc3)C(O)C(O)C2Cc2ccccc2)c1` (stereo not shown) [15YB] the entry was “+++ (+++=<10 μg/mL)”.

Another experiment has as its target single-chain tethered dimer of HIV protease (Human immunodeficiency virus 1, UniProt P04585). Description: biochemical. In kind it is biochemical. The conditions noted are these: Table 2m; read-out: HPLC Ki. The arrangement: fused on or other part: A second copy of the same protease unit is joined to the first by a short peptide tether, giving one polypeptide.
With `CN(C)CCNC(=O)c1cccc(CN2C(Cc3ccccc3)C(O)C(O)C(Cc3ccccc3)N(Cc3cccc(C(=O)NCCN(C)C)c3)S2(=O)=O)c1` (stereo not shown) [23AA], the Ki is 10 to 1000 nM.
The same measure, in the same setting: the value for `O=S1(=O)NC(Cc2ccccc2)C(O)C(O)C(Cc2ccccc2)N1CCCCCO` (stereo not shown) [23AE] was 10 to 1000 nM.
As for `O=S1(=O)N(CCCCCO)C(Cc2ccccc2)C(O)C(O)C(Cc2ccccc2)N1Cc1ccc2ccccc2c1` (stereo not shown) [23AF], the Ki was less than 10 nM.
With `O=S1(=O)N(CCCCCO)C(Cc2ccccc2)C(O)C(O)C(Cc2ccccc2)N1Cc1ccc(CO)cc1` (stereo not shown) [23AG], the Ki was less than 10 nM.
In the case of `O=S1(=O)N(CCCCCO)C(Cc2ccccc2)C(O)C(O)C(Cc2ccccc2)N1Cc1cccc(CO)c1` (stereo not shown) [23AH], the Ki was less than 10 nM.
Same read-out and setting: with `O=S1(=O)NC(Cc2ccccc2)C(O)C(O)C(Cc2ccccc2)N1` (stereo not shown) [23A] the figure was more than 1000 nM.
The same measure, in the same setting: with `C=CCN1C(Cc2ccccc2)C(O)C(O)C(Cc2ccccc2)N(CC=C)S1(=O)=O` (stereo not shown) [23E] the figure was 10 to 1000 nM.
Turning to `CCCCN1C(Cc2ccccc2)C(O)C(O)C(Cc2ccccc2)N(CCCC)S1(=O)=O` (stereo not shown) [23G], the Ki was less than 10 nM.
For the compound `O=S1(=O)N(Cc2ccc3ccccc3c2)C(Cc2ccccc2)C(O)C(O)C(Cc2ccccc2)N1Cc1ccc2ccccc2c1` (stereo not shown) [23H], the Ki is less than 10 nM.
`O=S1(=O)N(Cc2ccccc2)C(Cc2ccccc2)C(O)C(O)C(Cc2ccccc2)N1Cc1ccccc1` (stereo not shown) [23I]: the Ki was 10 to 1000 nM.
On the same count and under the same terms, the value for `O=S1(=O)N(Cc2ccc(OCc3ccccc3)cc2)C(Cc2ccccc2)C(O)C(O)C(Cc2ccccc2)N1Cc1ccc(OCc2ccccc2)cc1` (stereo not shown) [23J] was more than 1000 nM.
As to `O=S1(=O)N(Cc2ccc(O)cc2)C(Cc2ccccc2)C(O)C(O)C(Cc2ccccc2)N1Cc1ccc(O)cc1` (stereo not shown) [23K], the Ki is less than 10 nM.
With `Nc1cccc(CN2C(Cc3ccccc3)C(O)C(O)C(Cc3ccccc3)N(Cc3cccc(N)c3)S2(=O)=O)c1` (stereo not shown) [23M], the Ki was less than 10 nM.
Consider `O=S1(=O)N(Cc2cccc(CO)c2)C(Cc2ccccc2)C(O)C(O)C(Cc2ccccc2)N1Cc1cccc(CO)c1` (stereo not shown) [23N], for which the Ki is less than 10 nM.
On the same count and under the same terms, the value for `COCc1cccc(CN2C(Cc3ccccc3)C(O)C(O)C(Cc3ccccc3)N(Cc3cccc(COC)c3)S2(=O)=O)c1` (stereo not shown) [23P] was 10 to 1000 nM; that for `O=Cc1cccc(CN2C(Cc3ccccc3)C(O)C(O)C(Cc3ccccc3)N(Cc3cccc(C=O)c3)S2(=O)=O)c1` (stereo not shown) [23Q] was less than 10 nM.
On to `O=S1(=O)N(CC2CCOC2)C(Cc2ccccc2)C(O)C(O)C(Cc2ccccc2)N1CC1CCOC1` (stereo not shown) [23R], for which the Ki lay in the range of 10 to 1000 nM.
Same read-out and setting: with `O=S1(=O)N(Cc2cccc(C=NO)c2)C(Cc2ccccc2)C(O)C(O)C(Cc2ccccc2)N1Cc1cccc(C=NO)c1` (stereo not shown) [23S] the figure was less than 10 nM; with `CC(=O)c1cccc(CN2C(Cc3ccccc3)C(O)C(O)C(Cc3ccccc3)N(Cc3cccc(C(C)=O)c3)S2(=O)=O)c1` (stereo not shown) [23T], less than 10 nM.

Still in this experiment, the particulars now being: Table 2d; HIV protease inhibition, HPLC method; read-out: HPLC K1.
Take `Cl.NCC(=O)Nc1cccc(CN2C(=O)N(Cc3ccc(CO)cc3)C(Cc3ccccc3)C(O)C(O)C2Cc2ccccc2)c1` (stereo not shown) [15XT]: the Ki was less than 10 nM.
On to `O=C(NCCN1CCOCC1)c1cccc(CN2C(=O)N(Cc3cccc(C(=O)NCCN4CCOCC4)c3)C(Cc3ccccc3)C(O)C(O)C2Cc2ccccc2)c1` (stereo not shown) [15XU], for which the Ki was less than 10 nM.
As to `CN(C)CCNC(=O)c1cccc(CN2C(=O)N(CC3CC3)C(Cc3ccccc3)C(O)C(O)C2Cc2ccccc2)c1` (stereo not shown) [15YA], the Ki is less than 10 nM.
Same read-out and setting: the value for `O=C(NCCN1CCOCC1)c1cccc(CN2C(=O)N(CC3CC3)C(Cc3ccccc3)C(O)C(O)C2Cc2ccccc2)c1` (stereo not shown) [15YB] was less than 10 nM.
